Measured values reported in the NIST ThermoML archive (doi:10.1021/je4001697).

Settings: Liquid, Pulse-echo method

Cc1ccccc1 [toluene]
Settings	speed of sound [m/s]
240 K, 103.32 kPa	1571
240 K, 1104.2 kPa	1575
240 K, 2104.9 kPa	1578.9
240 K, 3105.7 kPa	1582.8
240 K, 4106.3 kPa	1586.7
240 K, 5107.4 kPa	1590.5
240 K, 6107.7 kPa	1594.3
240 K, 7108.4 kPa	1598.1
240 K, 8109.1 kPa	1601.9
240 K, 9109.8 kPa	1605.7
240 K, 10110 kPa	1609.4
240 K, 12612 kPa	1618.6
240 K, 15114 kPa	1627.7
240 K, 17616 kPa	1636.7
240 K, 20117 kPa	1645.6
240 K, 25121 kPa	1663
240 K, 30124 kPa	1680
240 K, 35127 kPa	1696.5
240 K, 40131 kPa	1712.7
240 K, 45134 kPa	1728.5
240 K, 50138 kPa	1744
240 K, 60144 kPa	1774
240 K, 70151 kPa	1802.9
240 K, 80158 kPa	1830.7
240 K, 90165 kPa	1857.6
240 K, 100172 kPa	1883.6
260 K, 102.53 kPa	1476.8
260 K, 1103.4 kPa	1481.1
260 K, 2104 kPa	1485.4
260 K, 3104.8 kPa	1489.7
260 K, 4105.6 kPa	1493.9
260 K, 5106.5 kPa	1498.1
260 K, 6106.8 kPa	1502.3
260 K, 7107.5 kPa	1506.5
260 K, 8108.3 kPa	1510.6
260 K, 9109 kPa	1514.7
260 K, 10110 kPa	1518.8
260 K, 12612 kPa	1528.8
260 K, 15114 kPa	1538.7
260 K, 17615 kPa	1548.5
260 K, 20117 kPa	1558.1
260 K, 25121 kPa	1576.9
260 K, 30124 kPa	1595.2
260 K, 35128 kPa	1613
260 K, 40131 kPa	1630.4
260 K, 45134 kPa	1647.3
260 K, 50138 kPa	1663.9
260 K, 60145 kPa	1695.8
260 K, 70152 kPa	1726.5
260 K, 80160 kPa	1756
260 K, 90166 kPa	1784.3
260 K, 100174 kPa	1811.7
280 K, 103.62 kPa	1385.5
280 K, 1104.5 kPa	1390.2
280 K, 2105.3 kPa	1395
280 K, 3106.2 kPa	1399.7
280 K, 4107.1 kPa	1404.3
280 K, 5107.6 kPa	1408.9
280 K, 6108.1 kPa	1413.5
280 K, 7108.8 kPa	1418
280 K, 8109.4 kPa	1422.5
280 K, 9110.1 kPa	1427
280 K, 10111 kPa	1431.5
280 K, 12612 kPa	1442.4
280 K, 15114 kPa	1453.2
280 K, 17616 kPa	1463.8
280 K, 20118 kPa	1474.2
280 K, 25122 kPa	1494.5
280 K, 30125 kPa	1514.2
280 K, 35128 kPa	1533.3
280 K, 40132 kPa	1551.9
280 K, 45135 kPa	1570
280 K, 50138 kPa	1587.6
280 K, 60145 kPa	1621.5
280 K, 70152 kPa	1654
280 K, 80159 kPa	1685.1
280 K, 90166 kPa	1714.9
280 K, 100173 kPa	1743.7
300 K, 102.33 kPa	1297.2
300 K, 103.33 kPa	1297.1
300 K, 1103.2 kPa	1302.4
300 K, 2104.1 kPa	1307.6
300 K, 3104.7 kPa	1312.7
300.01 K, 1104.2 kPa	1302.4
300.01 K, 2104.9 kPa	1307.6
300.01 K, 3105.6 kPa	1312.7
300.01 K, 4106.4 kPa	1317.8
300.01 K, 5107 kPa	1322.9
300.01 K, 6107.4 kPa	1327.9
300.01 K, 7108.1 kPa	1332.8
300.01 K, 8108.7 kPa	1337.8
300.01 K, 9109.4 kPa	1342.6
300.01 K, 10110 kPa	1347.5
300.01 K, 12612 kPa	1359.4
300.01 K, 15113 kPa	1371.1
300.01 K, 17615 kPa	1382.5
300.01 K, 20117 kPa	1393.8
300.01 K, 25120 kPa	1415.7
300.01 K, 30124 kPa	1436.8
300.01 K, 35127 kPa	1457.3
300.01 K, 40130 kPa	1477.1
300.01 K, 45133 kPa	1496.4
300.01 K, 50136 kPa	1515.1
300.01 K, 60143 kPa	1551.1
300.01 K, 70150 kPa	1585.4
300.01 K, 80158 kPa	1618.1
300.01 K, 90166 kPa	1649.4
300.01 K, 100172 kPa	1679.5
320 K, 102.82 kPa	1211.6
320 K, 102.83 kPa	1211.6
320 K, 1103.6 kPa	1217.3
320 K, 2104.3 kPa	1223.1
320 K, 3105 kPa	1228.7
320 K, 4105.8 kPa	1234.3
320 K, 5106.6 kPa	1239.9
320 K, 6107.1 kPa	1245.4
320 K, 7107.8 kPa	1250.8
320 K, 8108.5 kPa	1256.2
320 K, 9109.2 kPa	1261.5
320 K, 10110 kPa	1266.8
320 K, 12612 kPa	1279.7
320 K, 15113 kPa	1292.4
320 K, 17615 kPa	1304.8
320 K, 20117 kPa	1317
320 K, 25120 kPa	1340.5
320 K, 30124 kPa	1363.2
320 K, 35127 kPa	1385.1
320 K, 40131 kPa	1406.2
320 K, 45134 kPa	1426.7
320 K, 50138 kPa	1446.5
320 K, 60145 kPa	1484.5
320 K, 70152 kPa	1520.6
320 K, 80159 kPa	1554.9
320 K, 90166 kPa	1587.7
320 K, 100173 kPa	1619.1
340 K, 102.94 kPa	1128.5
340 K, 103.2 kPa	1128.5
340 K, 1103.7 kPa	1134.9
340 K, 1104.1 kPa	1134.9
340 K, 2104.3 kPa	1141.2
340 K, 2104.9 kPa	1141.2
340 K, 3105 kPa	1147.5
340 K, 3105.8 kPa	1147.5
340 K, 4105.8 kPa	1153.6
340 K, 4106.6 kPa	1153.6
340 K, 5107.2 kPa	1159.7
340 K, 6107.7 kPa	1165.7
340 K, 7108.4 kPa	1171.7
340 K, 8109.1 kPa	1177.5
340 K, 9109.7 kPa	1183.4
340 K, 10110 kPa	1189.1
340 K, 12612 kPa	1203.2
340 K, 15114 kPa	1217
340 K, 17615 kPa	1230.4
340 K, 20117 kPa	1243.5
340 K, 25120 kPa	1268.8
340 K, 30124 kPa	1293.1
340 K, 35128 kPa	1316.4
340 K, 40131 kPa	1338.9
340 K, 45135 kPa	1360.6
340 K, 50139 kPa	1381.6
340 K, 60146 kPa	1421.7
340 K, 70153 kPa	1459.5
340 K, 80160 kPa	1495.4
340 K, 90166 kPa	1529.6
340 K, 100174 kPa	1562.3
359.99 K, 10111 kPa	1114.3
359.99 K, 12613 kPa	1129.7
359.99 K, 15114 kPa	1144.6
359.99 K, 17616 kPa	1159.1
359.99 K, 20117 kPa	1173.3
359.99 K, 25121 kPa	1200.5
359.99 K, 30124 kPa	1226.4
359.99 K, 35128 kPa	1251.3
359.99 K, 40131 kPa	1275.1
359.99 K, 45134 kPa	1298.1
359.99 K, 50138 kPa	1320.2
359.99 K, 60145 kPa	1362.3
359.99 K, 70152 kPa	1402
359.99 K, 80159 kPa	1439.4
359.99 K, 90166 kPa	1475
359.99 K, 100173 kPa	1508.9
360 K, 103.4 kPa	1047.6
360 K, 1104.1 kPa	1054.7
360 K, 2104.8 kPa	1061.7
360 K, 3105.4 kPa	1068.6
360 K, 4106.4 kPa	1075.4
360 K, 5107 kPa	1082.1
360 K, 6107.4 kPa	1088.7
360 K, 7108 kPa	1095.2
360 K, 8108.7 kPa	1101.7
360 K, 9109.5 kPa	1108
360 K, 10110 kPa	1114.3
360 K, 12612 kPa	1129.7
380 K, 101.06 kPa	968.43
380 K, 1102.5 kPa	976.37
380 K, 2103.4 kPa	984.15
380 K, 3104.1 kPa	991.81
380 K, 4105 kPa	999.34
380 K, 5105.7 kPa	1006.7
380 K, 6106.1 kPa	1014
380 K, 7106.8 kPa	1021.2
380 K, 8107.6 kPa	1028.3
380 K, 9108.3 kPa	1035.2
380 K, 10109 kPa	1042.1
380 K, 12611 kPa	1058.8
380 K, 15113 kPa	1075
380 K, 17615 kPa	1090.7
380 K, 20117 kPa	1106
380 K, 25120 kPa	1135.2
380 K, 30124 kPa	1162.9
380 K, 35127 kPa	1189.3
380 K, 40131 kPa	1214.5
380 K, 45134 kPa	1238.8
380 K, 50138 kPa	1262.1
380 K, 60144 kPa	1306.3
380 K, 70152 kPa	1347.7
380 K, 80159 kPa	1386.7
380 K, 90166 kPa	1423.6
380 K, 100173 kPa	1458.8
400 K, 603.01 kPa	894.98
400 K, 608.94 kPa	895.04
400 K, 1104.2 kPa	899.42
400 K, 2104.6 kPa	908.15
400 K, 3105.3 kPa	916.7
400 K, 4105.1 kPa	925.08
400 K, 4106 kPa	925.07
400 K, 5106.7 kPa	933.29
400 K, 6107.4 kPa	941.35
400 K, 7108 kPa	949.26
400 K, 8108.7 kPa	957.04
400 K, 9109.3 kPa	964.69
400 K, 10110 kPa	972.21
400 K, 12612 kPa	990.48
400 K, 15113 kPa	1008.1
400 K, 17615 kPa	1025
400 K, 20117 kPa	1041.5
400 K, 25120 kPa	1072.8
400 K, 30123 kPa	1102.4
400 K, 35127 kPa	1130.4
400 K, 40130 kPa	1157.1
400 K, 45134 kPa	1182.7
400 K, 50138 kPa	1207.2
400 K, 60144 kPa	1253.4
400 K, 70152 kPa	1296.5
400 K, 80158 kPa	1337
400 K, 90166 kPa	1375.3
400 K, 100173 kPa	1411.7
420 K, 1102.5 kPa	823.4
420 K, 2103.2 kPa	833.27
420 K, 3103.9 kPa	842.89
420 K, 4104.6 kPa	852.28
420 K, 5105.2 kPa	861.45
420 K, 6105.9 kPa	870.42
420 K, 7106.6 kPa	879.2
420 K, 8107.3 kPa	887.79
420 K, 9108 kPa	896.21
420 K, 10109 kPa	904.48
420 K, 12610 kPa	924.47
420 K, 15112 kPa	943.61
420 K, 17614 kPa	961.99
420 K, 20116 kPa	979.68
420 K, 25119 kPa	1013.3
420 K, 30123 kPa	1044.8
420 K, 35126 kPa	1074.5
420 K, 40130 kPa	1102.7
420 K, 45133 kPa	1129.5
420 K, 50137 kPa	1155.2
420 K, 60144 kPa	1203.5
420 K, 70151 kPa	1248.4
420 K, 80158 kPa	1290.4
420 K, 90165 kPa	1329.9
420 K, 100172 kPa	1367.4
